Measurements taken from patent US7625917B2, “Thiolesters and uses thereof” (priority 1998, dated 2009).

How the values were obtained:
[1] = molecular target: T1, Sp1 (Homo sapiens, UniProt P08047); assay: Sp1 super gel shift EMSA (K562 cell nuclear extracts); assay type: biochemical; settings: specificity for CCHC vs CCHH zinc finger
T1 construct: treatment of K562 cell nuclear extracts with the compounds; host or cells: K562 cell nuclear extracts
Protocol: To determine if compound 44, 45 or 47 binding activity was specific for CCHC zinc fingers, a super gel shift EMSA after treatment of K562 cell nuclear extracts with the compounds was performed. This was followed by super shifting with Sp1-specific antibody. Sp1 was chosen because it is a cellular transcription factor that contains three copies of a classical type CCHH zinc finger motif that are required for Sp1 binding to its DNA target. […] Super gel shifting to determine the specificity of zinc finger reactive compounds was carried out using an Sp1 consensus oligomer (Stratagene, La Jolla, Calif.), K562 cell nuclear extracts, and antibodies for Sp1 (Sp1[PEP2]-G) (extracts and Sp1 Abs from Santa Cruz Biotechnology, Inc., Santa Cruz, Calif.). The binding reactions of oligonucleotides with K562 nuclear extract, as well as electrophoretic conditions were carried out as described in the Gelshift Buffer Kit, Stratagene , La Jolla, Calif.

[2] = molecular target: T2, Pr55gag precursor (Human immunodeficiency virus type 1 group M subtype B, UniProt P03347); assay: Gag precursor cross-linking and processing in U1 cells (Western blotting); assay type: cell-based, HIV-1; settings: TNFα-induced U1 cells
T2 construct: endogenous in cells; host or cells: U1 cells (latently HIV-1 infected), induced with TNFα
Protocol: Thiolester compounds were also tested for their ability to. inhibit HIV-1 replication in TNFα-induced U1 and ACH-2 cells. U1 cells were induced with 5 ng/ml of TNFα in the presence of various concentrations of the thiolesters 44, 45 or 47. Forty-eight hours later the cultures were characterized for virus p24 antigen production and cell viability. […] Compound 44 killed 60% of the cells at 200 μM. […] Precursor processing evaluation performed as described by Turpin (1997) Antiviral Chem. Chemother. 8:60-69. Thus, thiolester PATEs initiate intracellular disulfide cross-linking of precursor polyproteins during late phase virus assembly and mediate a direct virucidal effect via an attack on the mature NCp7 retroviral zinc fingers in the cell-free virus.
Virion cross linking was performed as described by Rice (1995) Science 270:1194-1197 and Turpin (1997) Antiviral Chem. Chemother. 8:60-67. Briefly, highly purified HIV-1MN (11.8 μg total protein) was incubated for 2 hour with concentrations of compound. Virions were concentrated and residual compound was removed by centrifugation (18,000×g, 1 h, 4° C.). The viral pellet was solubilized in 0.5 M Tris-HCl, (pH 6.8), 50% glycerol, 8% SDS and 0.4% bromophenol blue and proteins resolved by Western blotting. Western blotting to detect the expression of HIV-1 proteins in U1 cells or virus pellets for virion cross-linking experiments was carried out as described by Turpin (1996) J. Virol. 70:6180-6189. Briefly, 50 μg of total cellular protein for U1 experiments or the. total virion pellet (11.8 μg total viral protein) for NCp7 cross linking studies was resolved on 4 to 20% polyacrylamide gels in SDS with Tris-Glycine (Novex, San Diego Calif.). Samples for reduced gels were boiled for 5 min in the presence of 5% β-ME prior to loading. Resolved proteins were electroblotted on to polyvinylidene difluoride (PVDF) membranes, and HIV-1 specific proteins were detected using a mixture of goat anti-HIV-1 NCp7 and p24 or anti-NCp7 for virion proteins alone (a kind gift of L. E. Henderson, AIDS Vaccine Program NCI-FCRDC, Frederick, Md.). […]

[3] = test system: HIV-1NL4-3; assay: Virucidal (viral inactivation) assay on MAGI-CCR-5 cells; assay type: cell-based
Protocol: The cell-based p24 attachment assay was performed as described in Rice (1995) Science 270:1194-1197. Viral inactivation assays were carried out as described in Rice (1995) Science 270:1194-1197, and Turpin (1997) supra, with minor modifications. Briefly, MAGI-CCR-5 cells were plated (4×10^4 cells per well) in flat bottomed 2-cm well plates for 24 h, after which the culture media was removed and compound-treated virus was added. The virus used was obtained by transient transfection of pNL4-3 into HeLa cells yielding the replication competent NL4-3 virus. Virus containing supernatants were treated for 2 h at 37° C. after which residual compound was removed by centrifugation (18,000×g, 1 h, 4° C.). Virus pellets were resuspended and placed on the MAGI-CCR-5 monolayers and cultured for 48 h. Monolayers were fixed and stained with X-gal solution and blue cells counted.
NCp7 cross-linking is associated with viral inactivation. Whether the ability to crosslink the nucleocapsid protein, as determined by Western blotting, correlated with the ability to inactivate the viruses was tested in a virucidal assay. Virus stocks of HIV-1NL4-3 were incubated with various thiolester compounds. The virus was obtained by transient transfection of a replication-competent pNL4-3 plasmid into HeLa cells. Residual thiolester was removed by centrifugation. […]

[4] = test system: HIV-1RF; assay: XTT cytoprotection assay (antiviral activity); assay type: cell-based
Description: One exemplary means to determine antiviral activity is with CEM-SS cells and virus (e.g., HIV-1RF) (MOI=0.01) using the XTT (2,3-bis[2-methoxy-4-nitro-5-sulfophenyl]-5-[(phenylamino)carbonyl]-2H-tetrazolium hydroxide) cytoprotection assay, as described by Rice (1993) PNAS 90:9721-9724, and Rice (1997) Antimicrob. Agents Chemother. 41:419-426. Briefly, cells are infected with HIV-1 RF (or other virus to be tested) in the presence of various dilutions of test compounds (thiolesters and controls). The cultures are incubated for seven days. During this time control cultures without protective compounds (i.e., compounds with anti-viral activity) replicate virus, induce syncytia, and result in about 90% cell death. The cell death is measured by XTT dye reduction. XTT is a soluble tetrazolium dye that measures mitochondrial energy output, similar to MTT. Positive controls using dextran sulfate (an attachment inhibitor) or 3′-Azido-2′-3′-dideoxythymidine, AZT (a reverse transcriptase inhibitor) are added to each assay. Individual assays are done in duplicate using a sister plate method.
Effective antiviral concentrations providing 50% cytoprotection (EC50), and cellular growth inhibitory concentrations causing 50% cytotoxicity (IC50) are calculated.

T1 sequence (P08047 whole entry): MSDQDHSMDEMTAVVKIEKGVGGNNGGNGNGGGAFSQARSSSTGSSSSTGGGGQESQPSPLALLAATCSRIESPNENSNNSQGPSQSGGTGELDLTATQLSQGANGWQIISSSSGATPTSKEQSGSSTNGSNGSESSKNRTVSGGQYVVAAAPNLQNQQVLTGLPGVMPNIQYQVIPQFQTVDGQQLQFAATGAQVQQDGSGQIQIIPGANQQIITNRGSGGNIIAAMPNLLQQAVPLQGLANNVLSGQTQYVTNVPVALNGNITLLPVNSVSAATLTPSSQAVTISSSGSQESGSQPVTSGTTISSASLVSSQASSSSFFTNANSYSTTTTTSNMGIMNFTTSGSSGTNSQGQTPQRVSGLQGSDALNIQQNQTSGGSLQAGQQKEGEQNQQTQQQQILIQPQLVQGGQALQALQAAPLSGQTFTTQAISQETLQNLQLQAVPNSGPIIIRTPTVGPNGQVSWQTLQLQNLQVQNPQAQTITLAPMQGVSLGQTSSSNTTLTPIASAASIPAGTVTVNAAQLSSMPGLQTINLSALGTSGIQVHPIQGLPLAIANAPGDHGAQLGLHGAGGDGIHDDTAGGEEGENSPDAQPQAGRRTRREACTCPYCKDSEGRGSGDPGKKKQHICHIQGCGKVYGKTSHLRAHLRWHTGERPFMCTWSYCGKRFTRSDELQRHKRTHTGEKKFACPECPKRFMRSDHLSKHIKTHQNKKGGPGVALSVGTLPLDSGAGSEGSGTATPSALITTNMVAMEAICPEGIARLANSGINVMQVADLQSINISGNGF

Structure (SMILES)	effect on super shifting of Sp1 bound to its DNA target [1]	cross-linking and processing of viral precursor polyproteins (in words) [2]	virucidal activity (in words) [3]	antiviral activity (in words) [4]	EC50 ([4]; Human immunodeficiency virus 1, Table 6, read-out: EC50 %) [µM]	potency at inactivating virus vs compounds 44 and 45 [3]
CC(=O)NS(=O)(=O)c1ccc(NC(=O)c2ccccc2SC(=O)CCCC[n+]2ccccc2)cc1 [Compound 45, N-[2-(5-pyridinio-valeroylthio)benzoyl]sulfacetamide bromide]	failed to alter the pattern of super shifting of Sp1	induced cross-linking of viral precursor polyproteins and prevented processing of those precursors	–	–	–	–
O=C(O)CCCC[n+]1ccccc1.[Br-] [Compound 53, 5-pyridiniovaleric acid]	–	–	Neither intravirion cross-linkage of NCp7 nor virucidal activity were detected	without antiviral activity	> 316	–
O=C(CCCC[n+]1ccccc1)Sc1ccccc1C(=O)Nc1ccc(S(=O)(=O)c2ccc([N+](=O)[O-])cc2)cc1 [Compound 47]	failed to alter the pattern of super shifting of Sp1	induced cross-linking of viral precursor polyproteins and prevented processing of those precursors	–	–	–	approximately 6 fold
CC(=O)NS(=O)(=O)c1ccc(NC(=O)c2ccccc2SC(=O)CCCCBr)cc1 [Compound 44, N-[2-(5-bromovaleroylthio)benzoyl]sulfacetamide]	failed to alter the pattern of super shifting of Sp1	induced β-ME reversible alterations in the mobility of zinc finger containing HIV-1 precursor proteins at a intermediate level	–	–	–	–
